The source of these data is patent US7186743B2, “Substituted pyrazolyl compounds for the treatment of inflammation” (Pharmacia Corporation, priority 2001, dated 2007).

The experiment addresses T1, IKK2 (Homo sapiens, UniProt O14920).
T1 construct: made in house; host or cells: insect cells (baculovirus, pFastBac; SF9)
T1 sequence (O14920 1-756): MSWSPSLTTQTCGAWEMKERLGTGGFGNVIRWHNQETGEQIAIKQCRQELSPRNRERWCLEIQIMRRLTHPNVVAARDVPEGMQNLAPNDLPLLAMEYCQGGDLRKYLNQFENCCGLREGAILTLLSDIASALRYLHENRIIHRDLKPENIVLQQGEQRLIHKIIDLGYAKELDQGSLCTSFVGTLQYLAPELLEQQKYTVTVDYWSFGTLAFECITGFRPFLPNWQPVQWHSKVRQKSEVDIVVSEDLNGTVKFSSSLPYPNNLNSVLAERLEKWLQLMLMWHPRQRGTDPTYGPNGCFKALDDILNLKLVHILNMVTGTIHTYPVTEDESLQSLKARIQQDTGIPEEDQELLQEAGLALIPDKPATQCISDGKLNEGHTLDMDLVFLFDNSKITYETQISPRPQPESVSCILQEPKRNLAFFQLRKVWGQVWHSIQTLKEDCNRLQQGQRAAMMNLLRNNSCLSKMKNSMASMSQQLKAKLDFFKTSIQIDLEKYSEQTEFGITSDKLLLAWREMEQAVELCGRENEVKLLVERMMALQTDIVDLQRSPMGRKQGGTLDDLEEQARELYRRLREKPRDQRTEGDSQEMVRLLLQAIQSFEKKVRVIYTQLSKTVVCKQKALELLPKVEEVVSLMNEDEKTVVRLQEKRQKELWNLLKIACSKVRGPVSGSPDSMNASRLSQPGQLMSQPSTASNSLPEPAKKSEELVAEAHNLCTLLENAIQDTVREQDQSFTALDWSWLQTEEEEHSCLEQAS
Put plainly: IKKβ Resin Enzyme Assay (IKK2 resin). The format is biochemical. The text has this:
cDNAs of human IKK1 and IKK2 were amplified by reverse transcriptase-polymerase chain reaction from human placental RNA (Clonetech). hIKK1 was subcloned into pFastBac HTa (Life Technologies) and expressed as N-terminal His6-tagged fusion protein. The hIKK2 cDNA was amplified using a reverse oligonucleotide primer which incorporated the peptide sequence for a FLAG-epitope tag at the C-terminus of the IKK2 coding region ([…]). The hIKK2:FLAG cDNA was subcloned into the baculovirus vector pFastBac. The rhIKK2 ([…]) mutant was constructed in the same vector used for wild type rhIKK2 using a QuikChange™ mutagenesis kit (Stratagene). Viral stocks of each construct were used to infect insect cells grown in 40 L suspension culture. […] Cell lysates were stored at −80° C. until purification of the recombinant proteins was undertaken as described below.
A 10-liter culture of baculovirus-expressing IKK2 tagged with FLAG peptide was centrifuged and the cell pellet (MOI=0.1 and I=72 hrs) was re-suspended in buffer A. These cells were microfluidized, and centrifuged at 100,000×g for 45 min. Supernatant was passed over a G-25 column equilibrated with Buffer A. Protein peak was collected and incubated with anti-FLAG affinity resin on a rotator overnight in buffer B. The resin was washed in batch with 10–15 bed volumes of buffer C. Washed resin was poured into a column and rhIKK2 homodimer was eluted using 5 bed volumes of buffer B containing FLAG peptide. 5 mM DTT, 0.1% NP-40 and BSA (concentrated to 0.1% in final amount) was added to the eluted enzyme before concentrating in using an Amicon membrane with a molecular weight cut-off of 30 kDa. Enzyme was aliquoted and stored at −80° C.
IKKβ kinase activity was measured using a biotinylated IκBα peptide ([…]32-Gly-Leu-Asp-Ser36-Met-Lys-Asp-Glu-Glu) (American Peptide Co.). […] ATP (Amersham) (about 1×10^5 cpm), 1 μM ATP (Sigma), 1 mM DTT (Sigma), 2 mM MgCl2 (Sigma), 2 mM MnCl2 (Sigma), 10 mM NaF (Sigma), 25 mM Hepes (Sigma) buffer, pH 7.6 and 20 μl enzyme solution and 10 ul inhibitor in a final volume of 50 μl. After incubation at 25° C. for 30 min, 150 μl resin (Dowex anion-exchange resin AG1X8 200–400 mesh) in 900 mM formate, pH 3.0 was added to each well to stop the reaction. Resin was allowed to settle for one hour and 50 ul of supernatant was removed to a Micolite-2 flat bottom plate (Dynex). 150 μl of scintillation fluid (Microscint 40) (Packard) was added to each well. Incorporation of [γ-^33P] ATP was measured using a Top-Count NXT (Packard).

Setting [1] is: Table 19, read-out: IKK2 Resin IC50.
Setting [2] is: Table 2, read-out: IKK Resin IC50.
Setting [3] is: Table 12, read-out: IKK2 Resin IC50.
Setting [4] is: Table 4, read-out: IKK2 Resin IC50.
[5] abbreviates: Table 3, read-out: IKK Resin IC50.

Molecules are shown by their SMILES. Structures can show the parent of a compound that is named as a salt. Where two headings read alike, the source gives them in different places.

For `CCS(=O)(=O)c1ccc(-n2nc(C(N)=O)c3c2-c2cc(NC(=O)c4cc(N)ccc4Cl)ccc2CC3)cc1` [Example 398, 8-[(5-amino-2-chlorobenzoyl)amino]-1-[4-(ethylsulfonyl)phenyl]-4,5-dihydro-1H-benzo[g]indazole-3-carboxamide], the IC50 (Table 18, read-out: IKK2 Resin IC50) is at most 1 µM.
Regarding `CSc1ccc(-n2nc(C(N)=O)c3c2-c2cc(NC(=O)c4ccncc4Cl)ccc2CC3)cc1` [Example 412, 8-[(3-chloroisonicotinoyl)amino]-1-[4-(methylthio)phenyl]-4,5-dihydro-1H-benzo[g]indazole-3-carboxamide hydrochloride], the IC50 under setting [1] is at most 1 µM.
On to `CN1CCN(c2ccc(Cl)c(C(=O)Nc3ccc4c(c3)-c3c(c(C(N)=O)nn3-c3ccc(S(C)(=O)=O)cc3)CC4)c2)CC1` [Example 126, 8-{[2-chloro-5-(4-methylpiperazin-1-yl)benzoyl]amino}-1-[4-(methylsulfonyl)phenyl]-4,5-dihydro-1H-benzo[g]indazole-3-carboxamide], for which the IC50 under setting [2] was at most 1 µM.
As to `CSc1ccc(-n2nc(C(N)=O)c3c2-c2cc(NC(=O)c4cc(N)ccc4Cl)ccc2CC3)cc1` [Example 414, 8-[(5-amino-2-chlorobenzoyl)amino]-1-[4-(methylthio)phenyl]-4,5-dihydro-1H-benzo[g]indazole-3-carboxamide hydrochloride], the IC50 under setting [1] is at most 1 µM.
Take `COCCNC(=O)/C=C/c1ccc(-n2nc(C(N)=O)c3c2-c2cc(NC(=O)c4ccccc4Cl)ccc2CC3)cc1` [Example 309, 8-[(2-chlorobenzoyl)amino]-1-(4-{(1E)-3-[(2-methoxyethyl)amino]-3-oxoprop-1-enyl}phenyl)-4,5-dihydro-1H-benzo[g]indazole-3-carboxamide]: the IC50 under setting [3] was at most 1 µM.
In the case of `CS(=O)(=O)c1ccc(-n2nc(C(N)=O)c3c2-c2cc(NC(=O)c4ccccc4[N+](=O)[O-])ccc2CC3)cc1` [Example 102, 1-[4-(methylsulfonyl)phenyl]-8-[(2-nitrobenzoyl)amino]-4,5-dihydro-1H-benzo[g]indazole-3-carboxamide], the IC50 under setting [2] is at most 1 µM.
Consider `NC(=O)c1nn(-c2ccc(S(=O)(=O)C(F)(F)F)cc2)c2c1CCc1ccc(NC(=O)c3ccncc3Cl)cc1-2` [Example 358, 8-[(3-chloroisonicotinoyl)amino]-1-{4-[(trifluoromethyl)sulfonyl]phenyl}-4,5-dihydro-1H-benzo[g]indazole-3-carboxamide hydrochloride], for which the IC50 (Table 14, read-out: IKK2 Resin IC50) is at most 1 µM.
For `CS(=O)(=O)c1ccc(-n2nc(C(N)=O)c3c2-c2cc(NC(=O)c4ccccc4Cl)ccc2CC3)cn1` [Example 368, 8-[(2-chlorobenzoyl)amino]-1-[6-(methylsulfonyl)pyridin-3-yl]-4,5-dihydro-1H-benzo[g]indazole-3-carboxamide], the IC50 (read-out: IKK-2 resin IC50) was at most 1 µM.
On to `C=Cc1ccc(-n2nc(C(N)=O)c3c2-c2cc(NC(=O)c4cccnc4Cl)ccc2CC3)cc1` [Example 389, 8-{[(2-chloropyridin-3-yl)carbonyl]amino}-1-(4-vinylphenyl)-4,5-dihydro-1H-benzo[g]indazole-3-carboxamide], for which the IC50 (Table 17, read-out: IKK2 Resin IC50) was at most 1 µM.
As to `CN(C)S(=O)(=O)c1ccc(-n2nc(C(N)=O)c3c2-c2cc(NC(=O)c4ccccc4Cl)ccc2CC3)cc1` [Example 427, 8-[(2-chlorobenzoyl)amino]-1-{4-[(dimethylamino)sulfonyl]phenyl}-4,5-dihydro-1H-benzo[g]indazole-3-carboxamide], the IC50 (Table 21, read-out: IKK2 Resin IC50) was at most 1 µM.
Turning to `CS(=O)(=O)Nc1ccc(-n2nc(C(N)=O)c3c2-c2cc(NC(=O)c4ccccc4Cl)ccc2CC3)cc1` [Example 372, 8-[(2-chlorobenzoyl)amino]-1-{4-[(methylsulfonyl)amino]phenyl}-4,5-dihydro-1H-benzo[g]indazole-3-carboxamide], the IC50 (Table 15, read-out: IKK2 Resin IC50) was at most 1 µM.
As to `Cc1ccncc1C(=O)Nc1ccc2c(c1)-c1c(c(C(N)=O)nn1-c1ccc3c(c1)OCO3)CC2` [Example 187, 1-(1,3-benzodioxol-5-yl)-8-{[(4-methylpyridin-3-yl)carbonyl]amino}-4,5-dihydro-1H-benzo[g]indazole-3-carboxamide], the IC50 under setting [4] was at most 1 µM.
For `Cc1ccc(C(=O)Nc2ccc3c(c2)-c2c(c(C(N)=O)nn2-c2ccc(S(C)(=O)=O)cc2)CC3)c(Cl)n1` [Example 138, 8-{[(2-chloro-6-methylpyridin-3-yl)carbonyl]amino}-1-[4-(methylsulfonyl)phenyl]-4,5-dihydro-1H-benzo[g]indazole-3-carboxamide], under setting [5], the IC50 was at most 1 µM.
On to `NC(=O)c1nn(-c2ccc(O)cc2)c2c1CCc1ccc(NC(=O)c3cc(N)ccc3Cl)cc1-2` [Example 280, 8-[(5-amino-2-chlorobenzoyl)amino]-1-(4-hydroxyphenyl)-4,5-dihydro-1H-benzo[g]indazole-3-carboxamide], for which the IC50 (Table 10, read-out: IKK2 Resin IC50) was at most 1 µM.
Regarding `NC(=O)c1nn(-c2ccc(/C=C/C(=O)NCc3ccco3)cc2)c2c1CCc1ccc(NC(=O)c3ccccc3Cl)cc1-2` [Example 310, 8-[(2-chlorobenzoyl)amino]-1-(4-{(1E)-3-[(2-furylmethyl)amino]-3-oxoprop-1-enyl}phenyl)-4,5-dihydro-1H-benzo[g]indazole-3-carboxamide], the IC50 under setting [3] was at most 1 µM.
For `NC(=O)c1nn(-c2ccc3c(c2)OCO3)c2c1CCc1ccc(NC(=O)c3cc(F)c(F)cc3Cl)cc1-2` [Example 166, 1-(1,3-benzodioxol-5-yl)-8-[(2-chloro-4,5-difluorobenzoyl)amino]-4,5-dihydro-1H-benzo[g]indazole-3-carboxamide], under setting [4], the IC50 was at most 1 µM.
With `NC(=O)c1nn(-c2ccc3c(c2)OCO3)c2c1CCc1ccc(NC(=O)CNC3CCC3)cc1-2` [Example 445, 1-(1,3-benzodioxol-5-yl)-8-[(N-cyclobutylglycyl)amino]-4,5-dihydro-1H-benzo[g]indazole-3-carboxamidehydrochloride], the IC50 (Table 23, read-out: IKK2 Resin IC50) is at most 1 µM.
Consider `CS(=O)(=O)c1ccc(-n2nc(C(N)=O)c3c2-c2cc(NC(=O)c4cc(SC#N)ccc4[N+](=O)[O-])ccc2CC3)cc1` [Example 148, 3-[({3-(aminocarbonyl)-1-[4-(methylsulfonyl)phenyl]-4,5-dihydro-1H-benzo[g]indazol-8-yl}amino)carbonyl]-4-nitrophenylthiocyanate], for which the IC50 under setting [5] was at most 1 µM.
Consider `NC(=O)c1nn(-c2ccc(F)cc2)c2c1CCc1ccc(NC(=O)c3cccnc3Cl)cc1-2` [Example 225, 8-{[(2-chloropyridin-3-yl)carbonyl]amino}-1-(4-fluorophenyl)-4,5-dihydro-1H-benzo[g]indazole-3-carboxamide], for which the IC50 (Table 6, read-out: IKK2 Resin IC 50) was at most 1 µM.
With `NC(=O)c1nn(-c2ccc3c(c2)OCO3)c2c1CCc1ccc(NC(=O)c3cccc(N)c3Cl)cc1-2` [Example 171, 8-[(3-amino-2-chlorobenzoyl)amino]-1-(1,3-benzodioxol-5-yl)-4,5-dihydro-1H-benzo[g]indazole-3-carboxamidehydrochloride], the IC50 under setting [4] was at most 1 µM.
